Converted amounts (≈) assume the structure as drawn. Read-outs that look alike come from different tables or passages of the source. Marks after values point to notes of the source that are not given here.
Tests used:
[1] = test system: Candida albicans; test: Antifungal broth microdilution (Example 13); format: cell-based; settings: Candida albicans, 24 h, read-out: MIC0, C. albicans MMX 7445, FLU-R, VORI-R, complete inhibition
[2] = test system: E. coli ATCC 25922; test: MIC control strain; settings: QC organism, Example 13
[3] = test system: Anaerobes (Bacteroides fragilis, Clostridium difficile); test: Agar dilution MIC (Example 11); format: cell-based
Experimental: The susceptibility of anaerobic bacteria was determined by agar dilution using Brucella Agar (BD/BBL; Lot No. 5237692) supplemented with 5 μg/mL hemin (Sigma, St. Louis, Mo.; Lot No. 108K1088), 1 μg/mL Vitamin K1 and 5% (v/v) laked sheep blood (Cleveland Scientific, Bath, Ohio; Lot No. 322799).
Agar Dilution MIC Testing (Anaerobic Bacteria and Gonococci): MIC values for anaerobic bacteria were determined using a reference agar dilution method as described by CLSI (6). Organisms were grown at 35° C. in the Bactron II Anaerobic Chamber (Shel Lab, Cornelius, Oreg.) for approximately 48 hr prior to the assay. Drug dilutions and drug-supplemented agar plates were prepared manually per CLSI (6). The plates were allowed to stand at room temperature for 1 hr to allow the agar surface to dry and pre-reduced for approximately 1 hr in the anaerobe chamber prior to inoculation. Each isolate was suspended to the equivalent of a 0.5 McFarland standard in Brucella broth using a turbidity meter (Dade Behring MicroScan, West Sacramento, Calif.). Each bacterial cell suspension was then diluted 1:10 in Brucella broth and transferred to wells in a stainless steel replicator block which was used to inoculate the test plates. The prongs on the replicator deliver approximately 1-2 μl of inoculum to an agar surface. The resulting inoculum spots contained approximately 1×10^5 CFU/spot. After the inoculum dried, the inoculated drug-supplemented agar plates and no drug growth control plates were incubated at 35° C. for 42-48 hr in the anaerobe chamber. The MIC was read per CLSI guidelines (6).

[4] = test system: B. cenocepacia; test: MIC testing of CF isolates; format: cell-based, Burkholderia cenocepacia; settings: strain AU197
[5] = test system: M. avium; test: MIC testing of CF isolates; format: cell-based; settings: Mycobacterium avium
[6] = test system: Candida spp.; test: Broth microdilution MIC (Example 11); format: cell-based, C. parapsilosis, C. albicans, C. glabrata, C. tropicalis
[7] = test system: P. aeruginosa; settings: control strain ATCC 27853; cited from earlier work
[8] = test system: E. coli ATCC 25922; settings: cited from earlier work
[9] = in vivo; set-up: species or system beagle dogs; settings: dog; for half-life: two-dose inhalation
Experimental: Once adequately conditioned to the restraint device and face-masks, the animals are individually exposed to the test article aerosols. Animals receive a single face-mask inhalation exposure in a ramp study design to test article aerosols for up to 60 min. Animal observations during and post exposure determine the tolerance of inhaled BisEDT aerosols.
Blood Collections and Bioanalytical Analysis: Blood are collected for pharmacokinetic (PK) analysis prior to exposure, then at 4 hr (±5 min) post exposure, and again on Day 1, Day 2, Day 7 (pre- and 4 hr (±5 min)-post exposure), Day 8, Day 9, Day 10, Day 11, Day 12, Day 13, and Day 14. A total of 0.25 mL is collected at each timepoint. No PK blood is collected from the vehicle control (Group 1) animals; only animals exposed to BisEDT have blood collected for PK analysis. Collected samples are flash frozen without processing for shipment to Medpace for bioanalytical analysis. Additional blood is collected from all animals in all groups for hematology (1 mL) and clinical chemistry (1 mL) at baseline, Day 7 (pre-exposure), and again at euthanasia. Blood (2-2 mL) is collected from all animals at necropsy for coagulation analysis (d-Dimer, fibrinogen, PT, and PTT).
Blood for pharmacokinetic analysis (0.25 mL) is collected into tubes containing K3EDTA as an anticoagulant.
The left lobe of the lung is used for histopathology and will be fixed in 10% NBF. […] Liver, spleen, kidney, brain, heart, and respiratory tract are collected and fixed for potential, future analysis.
A two-dose inhalation PK study in dogs was performed covering four doses from 50 μg/kg to 450 μg/kg lung deposited dose. […] The systemic half-life is approximately 4 days, and the lung tissue half-life is approximately 7 days.

[10] = test system: Enterobacteriaceae; settings: E. coli (MMX 102), QC; cited from earlier work
[11] = test system: Enterobacteriaceae; test: Broth microdilution MIC (Example 11); format: cell-based, E. coli, K. pneumoniae, Enterobacter cloacae
[12] = Animals 4001 and 4004, Day 14 (7 days after last dose)

In the case of `CC(S)C(C)S.[Bi]` (stereo not shown) [BisBDT, bismuth-2,3-butanedithiol], the MIC [1] is reported as 2 µg/mL, the “MIC 24 hr” value [2] is reported as 0.5^a and the MIC ([3]; Bacteroides fragilis, ATCC25285, B. fragilis MMX 123 (ATCC 25285), QC, read-out: MIC) is reported as 1 µg/mL. It also gave an MIC ([3]; Bacteroides fragilis, agar dilution, read-out: MIC values) of 1 to 4 µg/mL, an MIC ([3]; C. difficile MMX 5680 (NCTC 13336), ribotype 027, CC^1 MET^R, read-out: MIC) of 2 µg/mL and an MIC ([3]; C. difficile MMX 8272, ribotype 255, CC^1, read-out: MIC) of 2 µg/mL. It also gave an MIC ([3]; C. difficile MMX 8279, ribotype 005, CC^R, read-out: MIC) of 2 µg/mL, an MIC ([3]; C. difficile MMX 8281, ribotype 010, CC^R, read-out: MIC) of 2 µg/mL and an MIC [4] of 4 µg/mL. It also gave an MIC ([5]; strain AMT G193-13) of over 16 µg/mL, an MIC ([5]; strain MAC101) of 1 µg/mL and an MIC ([6]; 24 h, C. albicans MMX 7039, Sensitive, incubation 24 hr) of 2 µg/mL. It also gave an MIC ([6]; 24 h, C. albicans MMX 7055, Sensitive, incubation 24 hr) of 2 µg/mL, an MIC ([6]; 24 h, C. glabrata MMX 7318, FLU^R, incubation 24 hr) of 0.25 µg/mL and an MIC ([6]; 24 h, C. glabrata miX 7086, FLU^R, incubation 24 hr) of 0.5 µg/mL. For the same molecule, the MIC ([6]; 24 h, C. parapsilosis MMX 2323 (ATCC 22019), QC, incubation 24 hr) was 0.5 µg/mL, the MIC ([6]; 24 h, C. tropicalis MMX 7247, FLU^R, incubation 24 hr) was 4 µg/mL and the MIC ([6]; 24 h, C. tropicalis MMX 7248, FLU^R, incubation 24 hr) was 4 µg/mL. It also gave an MIC ([6]; 24 h, C. tropicalis MMX 7360, FLU^R, incubation 24 hr) of 2 µg/mL, an MIC ([6]; 48 h, C. albicans MMX 7039, Sensitive, incubation 48 hr) of 2 µg/mL and an MIC ([6]; 48 h, C. albicans MMX 7055, Sensitive, incubation 48 hr) of 2 µg/mL. The MIC ([6]; 48 h, C. glabrata MMX 7318, FLU^R, incubation 48 hr) was 0.5 µg/mL, the MIC ([6]; 48 h, C. glabrata miX 7086, FLU^R, incubation 48 hr) was 1 µg/mL and the MIC ([6]; 48 h, C. parapsilosis MMX 2323 (ATCC 22019), QC, incubation 48 hr) was 1 µg/mL. For the same molecule, the MIC ([6]; 48 h, C. parapsilosis MMX 7370, FLU^R, incubation 48 hr) was 0.5 µg/mL, the MIC ([6]; 48 h, C. parapsilosis MMX 7555, FLU^R, incubation 48 hr) was 0.5 µg/mL and the MIC ([6]; 48 h, C. tropicalis MMX 7247, FLU^R, incubation 48 hr) was 4 µg/mL. It also gave an MIC ([6]; 48 h, C. tropicalis MMX 7248, FLU^R, incubation 48 hr) of 8 µg/mL and an MIC ([6]; 48 h, C. tropicalis MMX 7360, FLU^R, incubation 48 hr) of 2 µg/mL.
In the case of `C1C[S][Bi]([S]CC[S][Bi]2[S]CC[S]2)[S]1` [BisEDT, Bismuth-1,2-ethanedithiol], the “Expected MIC: goal (acceptable range)” value [7] is given as 1 to 2 µg/mL, the “QC Range 24 hr” value ([8]; E. coli ATCC 25922, established QC range, 24 hr) is given as 0.5-4 and the “Expected MIC: goal (acceptable range)” value ([8]; control strain ATCC 25922) is given as 1 µg/mL. It also gave a half-life ([9]; beagle, in vivo, inhaled or intranasal, read-out: lung tissue half-life (converted)) of about 168 h, a half-life ([9]; beagle, in vivo, inhaled or intranasal, read-out: systemic half-life (converted)) of about 96 h and a Tmax ([9]; beagle, in vivo, inhaled or intranasal, whole blood, after both doses) of about 24 h. For the same molecule, the average blood level [9, 12] was “less than 20 ng/mL” and the lung tissue level [9, 12] was “over 7,000 ng/g”.
For `C[C@@H](O)[C@H]1C(=O)N2C(C(=O)O)=C(S[C@@H]3CN[C@H](C(=O)N(C)C)C3)[C@H](C)[C@H]12` [MEM], the “CLSI Quality Control Range (MIC)” value [10] is listed as “(0.008-0.06) μg/mL”, the MIC ([11]; E. cloacae (MMX 5981), NDM-1, LVX-R, MEM-R, CAZ-R, GEN-R) is listed as over 64 µg/mL and the MIC ([11]; E. coli (MMX 102), QC) is listed as 0.03 µg/mL (≈ 0.0782 µM). The MIC ([11]; E. coli (MMX 5980), NDM-1, LVX-R, MEM-R, CAZ-R, GEN-R) was 32 µg/mL (≈ 83.4 µM), the MIC ([11]; E. coli (MMX 8423), ESBL, LVX-R, CAZ-R, GEN-R) was 0.03 µg/mL (≈ 0.0782 µM) and the MIC ([11]; E. coli (MMX 8424), ESBL, CAZ-R) was 0.03 µg/mL (≈ 0.0782 µM). For the same molecule, the MIC ([11]; E. coli (MMX 8425), ESBL, LVX-R, CAZ-R, GEN-R) was 0.015 µg/mL (≈ 0.0391 µM), the MIC ([11]; K. pneumoniae (MMX 4622), KPC-2, MEM-R, CAZ-R) was over 64 µg/mL and the MIC ([11]; K. pneumoniae (MMX 4623), KPC-2, MEM-R, CAZ-R, GEN-R) was over 64 µg/mL. For the same molecule, the MIC ([11]; K. pneumoniae (MMX 4653), KPC-3, LVX-R, MEM-R, CAZ-R) was over 64 µg/mL, the MIC ([11]; K. pneumoniae (MMX 4683), KPC-2, LVX-R, MEM-R, CAZ-R) was 32 µg/mL (≈ 83.4 µM) and the MIC ([11]; K. pneumoniae (MMX 4684), ESBL, MEM-R) was 8 µg/mL (≈ 20.9 µM). The MIC ([11]; K. pneumoniae (MMX 4685), ESBL, LVX-R, MEM-R, CAZ-R) was 4 µg/mL (≈ 10.4 µM), the MIC ([11]; K. pneumoniae (MMX 4694), KPC-3, LVX-R, MEM-R, CAZ-R) was 32 µg/mL (≈ 83.4 µM) and the MIC ([11]; K. pneumoniae (MMX 5979), NDM-1, LVX-R, MEM-R, CAZ-R, GEN-R) was over 64 µg/mL.
